Reference: ChEMBL document CHEMBL5104144, “Exploring the roles of the Cdc2-like kinases in cancers” (Bioorg Med Chem, 2022)

Assays:
[1] = Inhibition of GST-tagged recombinant mouse CLK1/STY expressed in Escherichia coli using RSPSYGRSRSRSRSRSRSRSRSNSRSRSY as substrate in presence of [gamma-32P]ATP by a liquid scintillation counter method
[2] = Inhibition of GST-tagged recombinant mouse CLK2 expressed in Escherichia coli using RSPSYGRSRSRSRSRSRSRSRSNSRSRSY as substrate in presence of [gamma-32P]ATP by a liquid scintillation counter method
[3] = biological target: T1, Dual specificity protein kinase CLK4 (Homo sapiens, UniProt Q9HAZ1); experiment: Inhibition of CLK4 (unknown origin)
[4] = biological target: T2, Dual specificity protein kinase CLK1 (Homo sapiens, UniProt P49759); experiment: Inhibition of CLK1 (unknown origin)
[5] = biological target: T1, Dual specificity protein kinase CLK4; experiment: Inhibition of CLK4 (unknown origin) assessed as reduction in SRSF10 phosphorylation
[6] = biological target: T1, Dual specificity protein kinase CLK4; experiment: Inhibition of CLK4 (unknown origin) assessed as reduction in SRSF1 phosphorylation
[7] = biological target: T2, Dual specificity protein kinase CLK1; experiment: Inhibition of CLK1 (unknown origin) assessed as reduction in SRSF10 phosphorylation
[8] = biological target: T1, Dual specificity protein kinase CLK4; experiment: Inhibition of human CLK4 (146 to 480 residues) expressed in Escherichia coli BL21 (DE3) Turner using MBP as substrate incubated for 60 mins in presence of [gamma-32P]ATP by radiometric kinase assay

T1 sequence (Q9HAZ1 whole entry): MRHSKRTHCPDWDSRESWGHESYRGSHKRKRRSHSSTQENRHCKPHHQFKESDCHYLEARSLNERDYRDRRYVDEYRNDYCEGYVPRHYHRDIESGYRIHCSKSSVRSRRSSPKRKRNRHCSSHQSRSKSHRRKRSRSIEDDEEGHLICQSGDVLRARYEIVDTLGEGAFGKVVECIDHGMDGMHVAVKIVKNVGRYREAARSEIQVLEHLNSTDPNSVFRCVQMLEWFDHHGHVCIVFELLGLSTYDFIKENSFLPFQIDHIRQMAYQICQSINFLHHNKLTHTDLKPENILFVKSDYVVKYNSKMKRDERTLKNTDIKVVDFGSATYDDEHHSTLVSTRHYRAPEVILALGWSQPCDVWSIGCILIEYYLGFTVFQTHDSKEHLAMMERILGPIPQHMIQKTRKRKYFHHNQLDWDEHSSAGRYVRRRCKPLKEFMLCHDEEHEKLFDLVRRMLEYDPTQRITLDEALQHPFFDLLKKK
T2 sequence (P49759 whole entry): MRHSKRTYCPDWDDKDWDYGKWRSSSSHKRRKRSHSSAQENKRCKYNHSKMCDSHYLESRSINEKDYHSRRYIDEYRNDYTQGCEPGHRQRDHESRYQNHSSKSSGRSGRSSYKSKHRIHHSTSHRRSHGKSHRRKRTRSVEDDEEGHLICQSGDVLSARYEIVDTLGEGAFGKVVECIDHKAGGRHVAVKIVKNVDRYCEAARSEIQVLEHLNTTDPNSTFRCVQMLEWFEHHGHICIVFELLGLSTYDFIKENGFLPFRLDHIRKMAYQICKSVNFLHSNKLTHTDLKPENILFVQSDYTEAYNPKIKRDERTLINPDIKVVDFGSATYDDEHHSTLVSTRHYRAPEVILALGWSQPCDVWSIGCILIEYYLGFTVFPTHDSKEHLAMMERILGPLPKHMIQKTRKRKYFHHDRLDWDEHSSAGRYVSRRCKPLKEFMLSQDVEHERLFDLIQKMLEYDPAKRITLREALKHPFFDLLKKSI

`CCN1/C(=C/C(C)=O)Sc2ccc(OC)cc21` gave an IC50 [1] of 20 nM and an IC50 [2] of 200 nM.
`O=C(Nc1ccc2[nH]cnc2c1)c1csc(Nc2ccccc2)n1` showed an IC50 [3] of 14 nM, an IC50 [4] of 44 nM and an IC50 [5] of 14 nM. For the same compound, the IC50 [6] was 24 nM and the IC50 [7] was 44 nM.
`O=C(O)c1ccc2c(c1)nc(Nc1cccc(Cl)c1)c1ccncc12` [SILMITASERTIB] showed an IC50 [8] of 11 nM.
